No end group written: not given here.
Experiments:
type Iα PKA holoenzyme = molecular target: T1, type Iα PKA holoenzyme (Bos taurus, UniProt P00514); assay: High throughput FP assay format (TR-IP20, C-subunit, R-subunit, cGMP); type: binding; settings: for HTS result (agonist / antagonist by FP reading versus 3 μM cGMP alone): tested at 25 μM, 40 nM TR-IP20; for reduction in FP signal due to competition with ATP: HTS format, compound at 200 μM, 2 mM ATP
T1 construct: made in house; host or cells: E. coli
Experimental: The high throughput screening (HTS) was performed by addition of 1 μL of a test compound in DMSO to 49 μL buffer containing TR-IP20, C-subunit, R-subunit, and cGMP.
An agonistic Z′-factor was calculated between the half maximal and maximal FP response, while the antagonistic Z′-factor was calculated between the minimal and half maximal FP response. The maximal FP response was calculated by adding 1 μL cGMP in DMSO (500 μM final) to 49 μL HTS mix. Half maximal binding was calculated when 1 μL DMSO was used instead and minimal FP response was calculated by adding 1 μL Rp-8-Br-cAMPS in DMSO (50 μM final). Final DMSO concentration was 2%.
Antagonism by Rp-8-Br-cAMPS was measured with the HTS format.
Finally, to validate the assay, screening was performed on a selection of nucleotide and xanthine derivatives. […] Included in Set 1 are the known PKA effectors 8-Cl-cAMP (agonist) and Rp-8-Br-cAMPS (antagonist).

PKA C-subunit = PKA C-subunit (Homo sapiens, UniProt P17612); settings: cited from earlier work
[1] = molecular target: C-subunit of protein kinase A (Mus musculus, UniProt P05132, C200A); assay: biochemical

T1 sequence (P00514 with tags, fused parts or gaps): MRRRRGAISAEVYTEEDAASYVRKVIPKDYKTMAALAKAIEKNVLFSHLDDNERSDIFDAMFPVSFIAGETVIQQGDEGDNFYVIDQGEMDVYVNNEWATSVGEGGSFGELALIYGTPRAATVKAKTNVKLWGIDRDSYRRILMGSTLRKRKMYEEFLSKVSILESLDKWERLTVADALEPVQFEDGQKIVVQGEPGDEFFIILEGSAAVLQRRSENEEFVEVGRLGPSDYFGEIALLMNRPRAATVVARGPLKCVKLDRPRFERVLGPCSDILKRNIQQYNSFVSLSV

Row | Molecule | HTS result (agonist / antagonist by FP reading versus 3 μM cGMP alone) (type Iα PKA holoenzyme) | reduction in FP signal due to competition with ATP (type Iα PKA holoenzyme) | also measured
1 | Nc1ncnc2c1nc(Cl)n2[C@@H]1O[C@@H]2COP(=O)(O)O[C@H]2[C@H]1O [8-Cl-cAMP] | agonist | – | –
2 | Nc1ncnc2c1ncn2[C@@H]1O[C@H](COP(=O)(O)OP(=O)(O)OP(=O)(O)O)[C@@H](O)[C@H]1O [ATP] | – | – | enhancement of the affinity of the C-subunit for ATP (PKA C-subunit; in the presence of the R-subunit or IP20, literature (Lew et al. 1997)): over 2000 fold; Kd (PKA C-subunit; read-out: affinity of ATP for the PKA C-subunit): ~25 µM
3 | Nc1ncnc2c1nc(Br)n2C1OC2COP(O)(=S)OC2C1O (stereo not shown) [Rp-8-Br-cAMPS] | antagonist | – | –
4 | CN[C@@H]1C[C@H]2O[C@@](C)([C@@H]1OC)n1c3ccccc3c3c4c(c5c6ccccc6n2c5c31)C(=O)NC4 [staurosporine] | – | no reduction in FP signal | –
5 | GRTGRRNAIHD-NH2 [PKI (14-24)] | – | – | IC50 [1]: 2.7 µM
6 | O=S(=O)(NCCNCC=Cc1ccc(Br)cc1)c1cccc2cnccc12 [H89, N-[2-(p-bromocinnamylamino)ethyl]-5-isoquinolinesulfonamide] | – | no reduction in FP signal | –

— patent publication US7892776B2, “Screening assay to identify modulators of protein kinase A” (The Regents of the University of California, priority 2007, dated 2011)
